These results are taken from patent US20230212120A1, “SMALL MOLECULE INHIBITORS OF GRK5 AND GRK5 SUBFAMILY MEMBERS AND USES THEREOF” (The Regents of the University of Michigan, priority 2020, published 2023).

Structures are written as SMILES. ≈ marks a conversion by molar mass, not a printed value. Where “and” joins values, the source holds several entries; their conditions need not be identical. Equal entries are not always repeated. Where two headings read alike, the source gives them in different places.

The target in series [1] is T1, bovine GRK2 (Bos taurus, UniProt P21146).
T1 sequence (P21146 1-689): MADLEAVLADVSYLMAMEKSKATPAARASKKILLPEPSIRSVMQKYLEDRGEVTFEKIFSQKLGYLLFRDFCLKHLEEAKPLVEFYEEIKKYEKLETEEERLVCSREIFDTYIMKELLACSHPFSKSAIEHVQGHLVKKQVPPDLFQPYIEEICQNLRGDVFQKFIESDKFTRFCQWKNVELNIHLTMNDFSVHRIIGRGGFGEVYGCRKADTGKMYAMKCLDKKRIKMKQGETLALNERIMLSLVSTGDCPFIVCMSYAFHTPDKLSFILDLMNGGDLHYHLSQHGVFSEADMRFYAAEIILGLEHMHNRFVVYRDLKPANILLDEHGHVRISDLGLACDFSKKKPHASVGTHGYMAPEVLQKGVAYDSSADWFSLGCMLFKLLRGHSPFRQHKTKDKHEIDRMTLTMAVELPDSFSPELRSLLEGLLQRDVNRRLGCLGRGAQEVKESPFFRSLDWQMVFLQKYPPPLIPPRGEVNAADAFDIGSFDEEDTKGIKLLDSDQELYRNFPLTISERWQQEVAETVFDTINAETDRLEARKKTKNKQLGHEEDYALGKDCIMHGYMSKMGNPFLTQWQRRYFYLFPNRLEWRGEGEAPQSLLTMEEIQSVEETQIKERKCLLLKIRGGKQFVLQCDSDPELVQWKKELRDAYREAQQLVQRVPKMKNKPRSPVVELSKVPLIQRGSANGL
Description: radiometric GRK2 inhibition assay (tubulin phosphorylation).

Series [2] has as its target PKA (Homo sapiens, UniProt P17612). Briefly: PKA inhibition assay (ADP-Glo). It counts as biochemical. The protocol:
The PKA inhibition assays were performed with the ADP-Glo system (Promega Corporation) according to the manufactory's instruction. […] After the initial reaction, ADP-Glo reagent was added to the reaction and allowed to incubate for an additional 40 min. Lastly, the kinase detection reagent was added and allowed to incubate for 30 min, and the luminescence was measured with a FlexStation 3 Multi-mode Microplate Reader (Molecular Devices). All data was analyzed in the same way as GRK inhibition assay. Experiments were performed three times in duplicate.
Standard control compounds are run during each assay to assess consistency across time, experimenters, and subtle changes in assay conditions that are sometimes required to keep some of the compounds soluble and disperse (such as through addition of DDM or 3% DMSO). Paroxetine were used as controls for GRK2 and PKA, and CCG215022 for GRK5.

Series [3] can be described thus: Thermodynamic solubility (Analiza Inc.). It counts as physicochemical. Particulars: for pH After Assay / solubility thermodynamic: Water; for pH After Assay: solubility assay; for solubility thermodynamic: n=1. The source says: Experimental data collected by Analiza Inc. Experimental values represent an average of n=1 experiments.
For series [4], the target named is GRK5 (Homo sapiens, UniProt P34947). Description: radiometric GRK5 inhibition assay (tubulin phosphorylation).
[5] abbreviates: read-out: GRK2 IC50, Table 1, μM ± SD.
The mark [6] stands for this setting: read-out: GRK2 IC50, Table 2, μM ± SD.

Sequence of GRK5 (P34947 whole entry): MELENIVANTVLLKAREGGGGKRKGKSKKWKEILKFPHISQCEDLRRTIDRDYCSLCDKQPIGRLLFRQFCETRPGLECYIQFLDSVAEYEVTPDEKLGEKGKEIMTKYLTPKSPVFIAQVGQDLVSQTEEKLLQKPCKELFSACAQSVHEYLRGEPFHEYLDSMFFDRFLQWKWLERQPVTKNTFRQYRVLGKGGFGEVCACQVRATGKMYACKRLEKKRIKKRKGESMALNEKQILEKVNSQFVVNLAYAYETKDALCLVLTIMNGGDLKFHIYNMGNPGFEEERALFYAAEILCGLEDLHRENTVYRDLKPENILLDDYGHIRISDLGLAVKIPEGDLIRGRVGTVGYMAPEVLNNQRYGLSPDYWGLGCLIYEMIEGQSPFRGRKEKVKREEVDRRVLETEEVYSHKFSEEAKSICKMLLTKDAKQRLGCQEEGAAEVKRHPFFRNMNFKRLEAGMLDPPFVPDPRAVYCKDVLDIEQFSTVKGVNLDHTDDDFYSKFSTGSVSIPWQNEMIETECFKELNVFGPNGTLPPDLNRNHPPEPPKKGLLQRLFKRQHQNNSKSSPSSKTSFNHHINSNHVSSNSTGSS

For the molecule `C=CCNC(=O)c1c(C)[nH]c(/C=C2\C(=O)Nc3ccc(C(=O)N[C@H](C)c4ccccc4)cc32)c1C` [Compound 5d, (R,Z)-3-((4-(allylcarbamoyl)-3,5-dimethyl-1H-pyrrol-2-yl)methylene)-2-oxo-N-(1-phenylethyl)indoline-5-carboxamide], the half-maximal inhibitory concentration (IC50) in series [1] (setting [5]) was 22 ± 10 µM; in series [2] (Table 1, μM ± SD) it was more than 250 µM.

As to `Cc1[nH]c(/C=C2\C(=O)Nc3ccc(C(=O)N[C@H](C)c4ccncc4)cc32)c(C)c1NC(=O)CCl` [Compound 9k, (R,Z)-3-((4-(2-chloroacetamido)-3,5-dimethyl-1H-pyrrol-2-yl)methylene)-2-oxo-N-(1-(pyridin-4-yl)ethyl)indoline-5-carboxamide], the IC50 in series [1] (setting [6]) stood at 1.7 ± 2 µM. For the same molecule, the “aqueous solubility relative to 9e” value in series [3] (compared to 9e) is recorded as “less than 2 fold”.

As for `Cc1[nH]c(/C=C2\C(=O)Nc3ccc(C(=O)N[C@H](C)c4ccccc4)cc32)c(C)c1NC(=O)C(O)CCl` (stereo partly drawn) [Compound 9h, (Z)-3-((4-(3-chloro-2-hydroxypropanamido)-3,5-dimethyl-1H-pyrrol-2-yl)methylene)-2-oxo-N—((R)-1-phenylethyl)indoline-5-carboxamide], the half-maximal inhibitory concentration (IC50) is 6.7 ± 5 µM in series [1] (setting [5]) and more than 250 µM in series [2] (Table 1, μM ± SD).

With `CC1=C(C(=O)Nc2ccc3[nH]ncc3c2)C(c2ccc(F)c(C(=O)NCc3ccccn3)c2)NC(=O)N1` (centres unmarked) [CCG 215022, reference compound], the IC50 in series [2] (Table 1, μM ± SD) is more than 250 µM.

Turning to `Cc1[nH]c(/C=C2\C(=O)Nc3ccc(C(=O)N[C@H](C)c4cccc(Cl)c4)cc32)c(C)c1NC(=O)CCl` [Compound 9m, (R,Z)-3-((4-(2-chloroacetamido)-3,5-dimethyl-1H-pyrrol-2-yl)methylene)-N-(1-(3-chlorophenyl)ethyl)-2-oxoindoline-5-carboxamide], the IC50 in series [1] (setting [6]) was 19 ± 10 µM; in series [2] (Table 2, μM ± SD) it was more than 250 µM.

On to `Cc1[nH]c(/C=C2\C(=O)Nc3ccc(C(=O)N[C@H](C)c4ccc(F)cc4)cc32)c(C)c1NC(=O)CBr` [Compound 9p, (R,Z)-3-((4-(2-bromoacetamido)-3,5-dimethyl-1H-pyrrol-2-yl)methylene)-N-(1-(4-fluorophenyl)ethyl)-2-oxoindoline-5-carboxamide], for which the IC50 in series [1] (setting [6]) amounted to 3.6 ± 2 µM.

For the molecule `Cc1[nH]c(/C=C2\C(=O)Nc3ccc(C(=O)N[C@H](C)c4ccc(Cl)cc4)cc32)c(C)c1NC(=O)CCl` [Compound 9o, (R,Z)-3-((4-(2-chloroacetamido)-3,5-dimethyl-1H-pyrrol-2-yl)methylene)-N-(1-(4-chlorophenyl)ethyl)-2-oxoindoline-5-carboxamide], the IC50 in series [1] (setting [6]) stood at 0.7 ± 0.2 µM. The “pH After Assay” value in series [3] stood at 4. For the same molecule, in series [3] (thermodynamic from solid), the thermodynamic solubility is 205 µM and 105 µg/mL.

Take `C=CCCNC(=O)c1c(C)[nH]c(/C=C2\C(=O)Nc3ccc(C(=O)N[C@H](C)c4ccccc4)cc32)c1C` [Compound 5f, (R,Z)-3-((4-(but-3-en-1-ylcarbamoyl)-3,5-dimethyl-1H-pyrrol-2-yl)methylene)-2-oxo-N-(1-phenylethyl)indoline-5-carboxamide]: the IC50 in series [1] (setting [5]) was found to be 630 ± 200 µM; in series [4], 1.9 ± 0.05 µM. The GRK2/GRK5 in series [4] (Table 1, ratio of IC50 values) came to 330.

Take `C=CS(=O)(=O)Nc1c(C)[nH]c(/C=C2\C(=O)Nc3ccc(C(=O)N[C@H](C)c4ccccc4)cc32)c1C` [Compound 9c, (R,Z)-3-((3,5-dimethyl-4-(vinylsulfonamido)-1H-pyrrol-2-yl)methylene)-2-oxo-N-(1-phenylethyl)indoline-5-carboxamide]: the IC50 in series [1] (setting [5]) amounted to 280 ± 110 µM.

Take `C=CC(=O)Nc1c(C)[nH]c(/C=C2\C(=O)Nc3ccc(C(=O)N[C@H](C)c4ccccc4)cc32)c1C` [Compound 9b, (R,Z)-3-((4-acrylamido-3,5-dimethyl-1H-pyrrol-2-yl)methylene)-2-oxo-N-(1-phenylethyl)indoline-5-carboxamide]: the IC50 in series [1] (setting [5]) turned out to be 87 ± 30 µM.

Regarding `CCN(CC)CCNC(=O)c1c(C)[nH]c(/C=C2\C(=O)Nc3ccc(C(=O)N[C@H](C)c4ccccc4)cc32)c1C` [Compound 5a, (R,Z)-3-((4-((2-(diethylamino)ethyl)carbamoyl)-3,5-dimethyl-1H-pyrrol-2-yl)methylene)-2-oxo-N-(1-phenylethyl)indoline-5-carboxamide], the IC50 is 1.1 ± 0.7 µM in series [1] (setting [5]) and more than 250 µM in series [2] (Table 1, μM ± SD).

For the molecule `Cc1[nH]c(/C=C2\C(=O)Nc3ccc(C(=O)N[C@H](C)c4ccccc4)cc32)c(C)c1NC(=O)CCl` [Compound 9e, (R,Z)-3-((4-(2-chloroacetamido)-3,5-dimethyl-1H-pyrrol-2-yl)methylene)-2-oxo-N-(1-phenylethyl)indoline-5-carboxamide], the IC50 in series [1] (setting [5]) is 350 ± 100 µM; in series [2] (Table 1, μM ± SD), more than 250 µM. In addition, the “pH After Assay” value in series [3] is recorded as 5. For the same molecule, the solubility (thermodynamic) in series [3] (thermodynamic from solid) is 75.1 µM and 35.7 µg/mL.

As to `Cc1[nH]c(/C=C2\C(=O)Nc3ccc(C(=O)N[C@H](C)c4ccccn4)cc32)c(C)c1NC(=O)CCl` [Compound 9l, (R,Z)-3-((4-(2-chloroacetamido)-3,5-dimethyl-1H-pyrrol-2-yl)methylene)-2-oxo-N-(1-(pyridin-2-yl)ethyl)indoline-5-carboxamide], the IC50 in series [1] (setting [6]) worked out at 9.6 ± 5 µM. Moreover, in series [3], the thermodynamic solubility was 262 µM (≈ 125 µg/mL) and the “pH After Assay” value amounted to 4.

For the molecule `Cc1ccc([C@@H](C)NC(=O)c2ccc3c(c2)/C(=C/c2[nH]c(C)c(NC(=O)CCl)c2C)C(=O)N3)cc1` [Compound 9n, (R,Z)-3-((4-(2-chloroacetamido)-3,5-dimethyl-1H-pyrrol-2-yl)methylene)-2-oxo-N-(1-(p-tolyl)ethyl)indoline-5-carboxamide], the IC50 in series [1] (setting [6]) was found to be 2.1 ± 1 µM. Further, in series [4] (Table 2, ratio of IC50 values), the GRK2/GRK5 is 3. In addition, the “pH After Assay” value in series [3] is listed as 2.5. Also, the solubility (thermodynamic) in series [3] (thermodynamic from solid) was 252 µM and 124 µg/mL.

In series [1], `Cc1[nH]c(/C=C2\C(=O)Nc3ccc(C(=O)N[C@H](C)c4ccccc4)cc32)c(C)c1NC(=O)C1CO1` (stereo partly drawn) [Compound 10l, (Z)-3-((3,5-dimethyl-4-(oxirane-2-carboxamido)-1H-pyrrol-2-yl)methylene)-2-oxo-N—((R)-1-phenylethyl)indoline-5-carboxamide] yielded an IC50 of more than 250 µM.

Take `Cc1[nH]c(/C=C2\C(=O)Nc3ccc(C(=O)N[C@H](C)c4ccccc4)cc32)c(C)c1[N+](=O)[O-]` [Compound 7a, (R,Z)-3-((3,5-dimethyl-4-nitro-1H-pyrrol-2-yl)methylene)-2-oxo-N-(1-phenylethyl)indoline-5-carboxamide]: the IC50 in series [1] (setting [5]) stood at 7.2 ± 3 µM.

`Fc1ccc([C@@H]2CCNC[C@H]2COc2ccc3c(c2)OCO3)cc1` [paroxetine, reference compound] gave an IC50 in series [2] (Table 1, μM ± SD) of 850 ± 400 µM.

Regarding `Cc1[nH]c(/C=C2\C(=O)Nc3ccc(C(=O)N[C@H](C)c4ccccc4)cc32)c(C)c1NC(=O)/C(C#N)=C/C(C)(C)C` [Compound 10a, (Z)-3-((4-((E)-2-cyano-4,4-dimethylpent-2-enamido)-3,5-dimethyl-1H-pyrrol-2-yl)methylene)-2-oxo-N—((R)-1-phenylethyl)indoline-5-carboxamide], the IC50 in series [1] (setting [5]) stood at 120 ± 80 µM.

With `Cc1[nH]c(/C=C2\C(=O)Nc3ccc(C(=O)N[C@H](C)c4ccccc4)cc32)c(C)c1NC(=O)/C=C/CN(C)C` [Compound 9f, (Z)-3-((4-((E)-4-(dimethylamino)but-2-enamido)-3,5-dimethyl-1H-pyrrol-2-yl)methylene)-2-oxo-N—((R)-1-phenylethyl)indoline-5-carboxamide], the IC50 in series [1] (setting [5]) came out at 17 ± 10 µM. Besides, the “pH After Assay” value in series [3] amounted to 5. The thermodynamic solubility in series [3] (thermodynamic from solid) is 125 µM and 64 µg/mL.

For `Cc1[nH]c(/C=C2\C(=O)Nc3ccc(C(=O)NC4(c5ccccc5)COC4)cc32)c(C)c1NC(=O)CCl` [Compound 9t, (Z)-3-((4-(2-chloroacetamido)-3,5-dimethyl-1H-pyrrol-2-yl)methylene)-2-oxo-N-(3-phenyloxetan-3-yl)indoline-5-carboxamide], the IC50 in series [1] (setting [6]) was 15 ± 7 µM; in series [2] (Table 2, μM ± SD), 69 ± 10 µM.

For the molecule `CCN(CC)CCNC(=O)c1c(C)[nH]c(/C=C2\C(=O)Nc3ccc(C(=O)N[C@@H](C)c4ccccc4)cc32)c1C` [Compound 5b, (S,Z)-3-((4-((2-(diethylamino)ethyl)carbamoyl)-3,5-dimethyl-1H-pyrrol-2-yl)methylene)-2-oxo-N-(1-phenylethyl)indoline-5-carboxamide], in series [1] (setting [5]), the IC50 came to 44 ± 18 µM.
